# According to PubChem BioAssay AID1259407 (Chemical Carcinogenesis Research Information System (CCRIS), 2018):
# Calls of active or inactive are those of the source. How the calls were made is not given here.
# Test system: CCRIS mutagenicity, Ames/micronucleus/aberration tests
# Experiment: CCRIS mutagenicity studies
# [1] = Test System: AMES SALMONELLA TYPHIMURIUM, Strain/Indicator: TA98, Metabolic Activation: NONE, Method: STANDARD PLATE
# [2] = Test System: AMES SALMONELLA TYPHIMURIUM, Strain/Indicator: TA98, Metabolic Activation: RAT, LIVER, S-9, AROCLOR 1254, Method: STANDARD PLATE
# [3] = Test System: AMES SALMONELLA TYPHIMURIUM, Strain/Indicator: TA100, Metabolic Activation: NONE, Method: STANDARD PLATE
# [4] = Test System: AMES SALMONELLA TYPHIMURIUM, Strain/Indicator: TA100, Metabolic Activation: RAT, LIVER, S-9, AROCLOR 1254, Method: STANDARD PLATE
# [5] = Test System: AMES SALMONELLA TYPHIMURIUM, Strain/Indicator: TA1535, Metabolic Activation: NONE, Method: STANDARD PLATE
# [6] = Test System: AMES SALMONELLA TYPHIMURIUM, Strain/Indicator: TA1535, Metabolic Activation: RAT, LIVER, S-9, AROCLOR 1254, Method: STANDARD PLATE
# [7] = Test System: AMES SALMONELLA TYPHIMURIUM, Strain/Indicator: TA1537, Metabolic Activation: NONE, Method: STANDARD PLATE
# [8] = Test System: AMES SALMONELLA TYPHIMURIUM, Strain/Indicator: TA1537, Metabolic Activation: RAT, LIVER, S-9, AROCLOR 1254, Method: STANDARD PLATE
compound,measurement,setting,value
COC(=O)CCC(=O)OC,mutagenic call,"Test System: AMES SALMONELLA TYPHIMURIUM, Strain/Indicator: TA97, Metabolic Activation: HAMSTER, LIVER, S-9, AROCLOR 1254 (10 OR 30%), Method: PREINCUBATION",inactive; negative
same,mutagenic call,"Test System: AMES SALMONELLA TYPHIMURIUM, Strain/Indicator: TA97, Metabolic Activation: NONE, Method: PREINCUBATION",inactive; negative
same,mutagenic call,"Test System: AMES SALMONELLA TYPHIMURIUM, Strain/Indicator: TA97, Metabolic Activation: RAT, LIVER, S-9, AROCLOR 1254 (10 OR 30%), Method: PREINCUBATION",inactive; negative
same,mutagenic call,"Test System: AMES SALMONELLA TYPHIMURIUM, Strain/Indicator: TA98, Metabolic Activation: HAMSTER, LIVER, S-9, AROCLOR 1254 (10 OR 30%), Method: PREINCUBATION",inactive; negative
same,mutagenic call,"Test System: AMES SALMONELLA TYPHIMURIUM, Strain/Indicator: TA98, Metabolic Activation: NONE, Method: PREINCUBATION",inactive; negative
same,mutagenic call,[1],inactive; negative
same,mutagenic call,"Test System: AMES SALMONELLA TYPHIMURIUM, Strain/Indicator: TA98, Metabolic Activation: RAT, LIVER, S-9, AROCLOR 1254 (10 OR 30%), Method: PREINCUBATION",inactive; negative
same,mutagenic call,[2],inactive; negative
same,mutagenic call,"Test System: AMES SALMONELLA TYPHIMURIUM, Strain/Indicator: TA100, Metabolic Activation: HAMSTER, LIVER, S-9, AROCLOR 1254 (10 OR 30%), Method: PREINCUBATION",inactive; negative
same,mutagenic call,"Test System: AMES SALMONELLA TYPHIMURIUM, Strain/Indicator: TA100, Metabolic Activation: NONE, Method: PREINCUBATION",inactive; negative
same,mutagenic call,[3],inactive; negative
same,mutagenic call,"Test System: AMES SALMONELLA TYPHIMURIUM, Strain/Indicator: TA100, Metabolic Activation: RAT, LIVER, S-9, AROCLOR 1254 (10 OR 30%), Method: PREINCUBATION",inactive; negative
same,mutagenic call,[4],inactive; negative
same,mutagenic call,"Test System: AMES SALMONELLA TYPHIMURIUM, Strain/Indicator: TA1535, Metabolic Activation: HAMSTER, LIVER, S-9, AROCLOR 1254 (10 OR 30%), Method: PREINCUBATION",inactive; negative
same,mutagenic call,"Test System: AMES SALMONELLA TYPHIMURIUM, Strain/Indicator: TA1535, Metabolic Activation: NONE, Method: PREINCUBATION",inactive; negative
same,mutagenic call,[5],inactive; negative
same,mutagenic call,"Test System: AMES SALMONELLA TYPHIMURIUM, Strain/Indicator: TA1535, Metabolic Activation: RAT, LIVER, S-9, AROCLOR 1254 (10 OR 30%), Method: PREINCUBATION",inactive; negative
same,mutagenic call,[6],inactive; negative
same,mutagenic call,[7],inactive; negative
same,mutagenic call,[8],inactive; negative
O=S(=O)(Oc1ccc(Cl)cc1Cl)c1cccc2cccnc12,mutagenic call,[1],inactive; negative
same,mutagenic call,[2],active; positive
same,mutagenic call,[3],inactive; negative
same,mutagenic call,[4],active; positive
same,mutagenic call,[5],inactive; negative
same,mutagenic call,[6],inactive; negative
same,mutagenic call,[7],inactive; negative
same,mutagenic call,[8],inactive; negative
O=S(=O)(O)CNc1ccc(N=Nc2cccnc2)cc1,mutagenic call,[1],inactive; negative
same,mutagenic call,[2],inactive; negative
same,mutagenic call,[3],inactive; negative
same,mutagenic call,[4],inactive; negative
same,mutagenic call,[5],inactive; negative
same,mutagenic call,[6],inactive; negative
same,mutagenic call,[7],inactive; negative
same,mutagenic call,[8],inactive; negative
same,mutagenic call,"Test System: AMES SALMONELLA TYPHIMURIUM, Strain/Indicator: TA1538, Metabolic Activation: NONE, Method: STANDARD PLATE",inactive; negative
same,mutagenic call,"Test System: AMES SALMONELLA TYPHIMURIUM, Strain/Indicator: TA1538, Metabolic Activation: RAT, LIVER, S-9, AROCLOR 1254, Method: STANDARD PLATE",inactive; negative
NNC(N)=O,mutagenic call,"End Point: IN VIVO MICRONUCLEUS, Test System: POLYCHROMATIC ERYTHROCYTES, Species: MOUSE, Strain/Sex: BALB/C/MALE, Route: IP INJECTION",inactive; negative
same,mutagenic call,"End Point: IN VIVO MICRONUCLEUS, Test System: POLYCHROMATIC ERYTHROCYTES, Species: MOUSE, Strain/Sex: CBA/MALE, Route: IP INJECTION",inactive; negative
O=C1OCCN1N=Cc1ccc([N+](=O)[O-])o1,mutagenic call,"End Point: In vivo micronucleus, Test System: Bone marrow polychromatic erythrocytes, Species: Rat, Strain/Sex: Sprague-Dawley/Female, Route: Oral",inactive; positive (p</=0.05 for mononuclei; p</=0.01 for binuclei for furazolidone alone;
same,mutagenic call,"Test System: AMES SALMONELLA TYPHIMURIUM, Strain/Indicator: TA98(1,8-DNP6), Metabolic Activation: NONE, Method: STANDARD PLATE",active; positive
same,mutagenic call,"Test System: AMES SALMONELLA TYPHIMURIUM, Strain/Indicator: TA98(1,8-DNP6), Metabolic Activation: RAT, LIVER, S-9, 3-METHYLCHOLANTHRENE, Method: STANDARD PLATE",active; positive
same,mutagenic call,"Test System: AMES SALMONELLA TYPHIMURIUM, Strain/Indicator: TA98(NR), Metabolic Activation: NONE, Method: STANDARD PLATE",active; positive
same,mutagenic call,"Test System: AMES SALMONELLA TYPHIMURIUM, Strain/Indicator: TA98(NR), Metabolic Activation: RAT, LIVER, S-9, 3-METHYLCHOLANTHRENE, Method: STANDARD PLATE",active; positive
same,mutagenic call,"Test System: AMES SALMONELLA TYPHIMURIUM, Strain/Indicator: TA98, Metabolic Activation: NONE",active; positive
same,mutagenic call,[1],active; positive
same,mutagenic call,"Test System: AMES SALMONELLA TYPHIMURIUM, Strain/Indicator: TA98, Metabolic Activation: RAT, LIVER, S-9, 3-METHYLCHOLANTHRENE, Method: STANDARD PLATE",active; positive
same,mutagenic call,"Test System: AMES SALMONELLA TYPHIMURIUM, Strain/Indicator: TA98, Metabolic Activation: S-9",active; positive
same,mutagenic call,"Test System: AMES SALMONELLA TYPHIMURIUM, Strain/Indicator: TA100, Metabolic Activation: NONE",active; positive
same,mutagenic call,"Test System: AMES SALMONELLA TYPHIMURIUM, Strain/Indicator: TA100, Metabolic Activation: S-9",active; positive
same,mutagenic call,"Test System: CHINESE HAMSTER OVARY, Strain/Indicator: CHO-AS52, Metabolic Activation: NONE",inactive; negative
same,mutagenic call,"Test System: CHINESE HAMSTER OVARY, Strain/Indicator: CHO-AS52, Metabolic Activation: RAT, LIVER, S-9, 3-METHYLCHOLANTHRENE",inactive; negative
same,mutagenic call,"Test System: CHINESE HAMSTER OVARY, Strain/Indicator: CHO-K1-BH4, Metabolic Activation: NONE",active; positive
same,mutagenic call,"Test System: CHINESE HAMSTER OVARY, Strain/Indicator: CHO-K1-BH4, Metabolic Activation: RAT, LIVER, S-9, 3-METHYLCHOLANTHRENE",active; positive
same,mutagenic call,"Test System: CHINESE HAMSTER OVARY, Strain/Indicator: CHO-UV5, Metabolic Activation: NONE",active; positive
same,mutagenic call,"Test System: CHINESE HAMSTER OVARY, Strain/Indicator: CHO-UV5, Metabolic Activation: RAT, LIVER, S-9, 3-METHYLCHOLANTHRENE",active; positive
same,mutagenic call,"Test System: E. COLI, Strain/Indicator: TC3960, Metabolic Activation: NONE, Method: PREINCUBATION",active; positive
same,mutagenic call,"Test System: E. COLI, Strain/Indicator: WP2, Metabolic Activation: NONE, Method: SPOT",active; positive
same,mutagenic call,"Test System: E. COLI, Strain/Indicator: WP2 UVRA, Metabolic Activation: NONE, Method: SPOT",active; positive
Nc1ccc(-c2ccc(N)cc2Cl)c(Cl)c1,mutagenic call,"Test System: AMES SALMONELLA TYPHIMURIUM, Strain/Indicator: TA98, Metabolic Activation: HAMSTER, LIVER, S-9, Method: PREINCUBATION (PRIVAL METHOD)",active; positive
same,mutagenic call,"Test System: AMES SALMONELLA TYPHIMURIUM, Strain/Indicator: TA98, Metabolic Activation: NONE, Method: PREINCUBATION (PRIVAL METHOD)",active; positive
same,mutagenic call,"Test System: UDS HUMAN CELLS, Strain/Indicator: THY INCORP (NON-S-PHASE), Metabolic Activation: RAT, LIVER, S-9, PHENOBARBITAL, Method: LIQUID SCINTILLATION COUNTING",active; positive
CC(O)c1cc2ccc3cccc4ccc(c1)c2c34 (stereo not drawn),mutagenic call,"Test System: AMES SALMONELLA TYPHIMURIUM, Strain/Indicator: TA98, Metabolic Activation: HUMAN, LIVER, CYTOSOL, PAPS, Method: PREINCUBATION",active; positive
C[C@H](CCC(=O)O)[C@H]1CC[C@H]2[C@@H]3[C@@H](O)C[C@@H]4C[C@H](O)CC[C@]4(C)[C@H]3CC[C@]12C,mutagenic call,"Test System: AMES SALMONELLA TYPHIMURIUM, Strain/Indicator: TA98, Metabolic Activation: NONE, Method: FLUCTUATION TEST",active; positive
same,mutagenic call,"Test System: AMES SALMONELLA TYPHIMURIUM, Strain/Indicator: TA100, Metabolic Activation: NONE, Method: FLUCTUATION TEST",inactive; negative
same,mutagenic call,[3],inactive; negative
same,mutagenic call,[4],inactive; negative
